From patent publication US20230416237A1, “AMIDE COMPOUND, PHARMACEUTICAL COMPOSITION AND USE THEREOF” (SHENZHEN BO LI JIAN MEDICINE CO., LTD., priority 2020, published 2023)

Experiments:
JAK1 = JAK1 (Homo sapiens (Human), UniProt P23458); experiment: JAK1 inhibitory activity, mobility shift assay, 1 mM ATP; format: biochemical; conditions: for IC50: 1 mM ATP; for JAK2/JAK1 Multiple selectivity: ratio of JAK2 IC50 to JAK1 IC50, 1 mM ATP
Procedure: (§1) The JAK1 inhibitory activity and the JAK2 inhibitory activity of the amide compounds provided in the above examples were tested by the method below.
(§2) Specific steps are described below. • 1. A 1× Kinase buffer was formulated. • 2. Concentration gradients of the compound were formulated: a test compound with an initial concentration of 10000 nM (JAK1) or 30000 nM (JAK2) was diluted in a 384-well plate to a 100% DMSO solution with a 100-fold final concentration, wherein the compound was diluted by a fold of 3 to 10 concentrations. 250 nL of the compound with the 100-fold final concentration was transferred with a dispenser Echo 550 to the target plate. • 3. A kinase solution with a 2.5-fold final concentration was prepared with the 1× Kinase buffer. • 4. […] The plate was centrifuged at 1000 rpm for 30 s, shaken and uniformly mixed, and incubated for 10 min at room temperature. • 6. A mixed solution of ATP (the final concentration of ATP=1 mM) and Kinase substrate with a 5/3-fold final concentration was formulated with the 1× Kinase buffer. • 7. 15 μL of the mixed solution of ATP and the substrate with the 5/3-fold final concentration was added to initiate the reaction. • 8. The 384-well plate was centrifuged at 1000 rpm for 30 s, shaken and uniformly mixed, and incubated for respective times at room temperature. • 9. The kinase reaction was stopped by adding 30 μL of a detection termination solution, and the plate was centrifuged at 1000 rpm for 30 s and shaken and uniformly mixed. • 10. The conversion rate was read with Caliper EZ Reader and the half maximal inhibitory concentration (IC50) was calculated.

JAK2 = JAK2 (Homo sapiens (Human), UniProt O60674); experiment: JAK2 inhibitory activity, mobility shift assay, 1 mM ATP; format: biochemical
Sequence of JAK2 (O60674 826-1132): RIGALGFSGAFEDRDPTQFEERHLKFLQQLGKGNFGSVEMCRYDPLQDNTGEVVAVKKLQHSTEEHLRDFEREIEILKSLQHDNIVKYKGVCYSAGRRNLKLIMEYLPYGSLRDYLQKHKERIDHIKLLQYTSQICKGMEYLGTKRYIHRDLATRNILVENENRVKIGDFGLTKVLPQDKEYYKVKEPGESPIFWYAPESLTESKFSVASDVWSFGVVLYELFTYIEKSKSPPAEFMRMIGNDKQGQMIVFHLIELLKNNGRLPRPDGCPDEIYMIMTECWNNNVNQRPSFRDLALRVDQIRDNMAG
Procedure: as §1, §2

[1] = system: IFNα-induced pSTAT3 (JAK1/TYK2 signaling pathway); experiment: Mouse whole blood assay, inhibition of IFNα-induced pSTAT3; format: cell-based; conditions: C57BL/6J mouse blood, IFNα 20000 IU/mL
Procedure: Cytokine IFNα can induce STAT3 phosphorylation (pSTAT3) through the JAK1/TYK2 signaling pathway. […] IFNα used was Recombinant mouse IFNα (Miltenyi #130-093-131), the pSTAT3 antibody used was Alexa Fluor 488 anti-STAT3 Phospho (Tyr705) Antibody (Biolegend #651106), and the CD3 antibody used was Brilliant Violet 421 anti-mouse CD3 Antibody (Biolegend #100228). The cytokine dilution buffer was PBS+0.1% BSA, which was filtered and stored at […]. The FACS buffer was PBS+0.2% BSA+1 mM EDTA. Specific steps are described below. • 1. C57BL/6J mouse blood was added to a 96-well plate, with 90 μL per well. • 2. Each well was added with 5 μL of the compound ([…]), uniformly mixed and incubated at 37° C. for 60 min in an incubator. • 3. Each well was added with 5 μL of 20×IFNα (with a working concentration of 20000 IU/mL) as the stimulation factor, uniformly mixed and incubated at 37° C. for 30 min. • 4. Blood was transferred to a 96-deep-well plate, and each well was added with 1 mL of Lyse fix buffer (1×), uniformly mixed and incubated at 37° C. for 10 min. • 5. The plate was centrifuged at 600 g for 5 min and the supernatant was discarded. 1 mL of PBS was added to each well and centrifuged at 600 g for 5 min and the supernatant was discarded, which were repeated twice. Each well was added with 100 μL of the anti-mCD3 antibody (diluted by a fold of 80 with the cytokine dilution buffer), uniformly mixed and incubated at 4° C. for 30 min. • 6. 1 mL of PBS was added to each well and centrifuged at 600 g for 5 min and the supernatant was discarded, which were repeated twice. Each well was added with 1000 μL of Perm III, uniformly mixed and incubated at 4° C. for 30 min. • 7. The plate was centrifuged at 600 g for 5 min and the supernatant was discarded. 1 mL of PBS was added to each well and centrifuged at 600 g for 5 min and the supernatant was discarded, which were repeated twice. • 8. Each well was added with 100 μL of the anti-pSTAT3 antibody (diluted by a fold of 50 with the FACS buffer), uniformly mixed and incubated at 25° C. for 40 min. • 9. 1 mL of the FACS buffer was added to each well and centrifuged at 600 g for 5 min and the supernatant was discarded. 200 μL of the FACS buffer was added to each well and resuspended. All samples were transferred to a 96-well tip-bottom plate and uploaded. • 10. Data were collected and analyzed.

Sequence of JAK1 (P23458 850-1154): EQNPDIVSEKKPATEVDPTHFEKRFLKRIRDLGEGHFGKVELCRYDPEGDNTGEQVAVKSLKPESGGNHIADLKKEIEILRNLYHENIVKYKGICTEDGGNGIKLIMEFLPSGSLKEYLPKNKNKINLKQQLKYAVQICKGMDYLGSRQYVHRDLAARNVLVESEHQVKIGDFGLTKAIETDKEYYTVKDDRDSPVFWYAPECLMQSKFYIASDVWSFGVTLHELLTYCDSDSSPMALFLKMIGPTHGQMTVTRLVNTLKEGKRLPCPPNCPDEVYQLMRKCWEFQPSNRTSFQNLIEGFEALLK

COc1nn(C)cc1Nc1nccc(-c2c[nH]c3c(NC(=O)[C@@H](C)N4CCN(C)CC4)cccc23)n1 [AZD4205, reference compound]
IC50 (JAK1; Table 7): 56 nM
IC50 (JAK1; Table 8): 56 nM
JAK2/JAK1 Multiple selectivity (JAK1): 72
IC50 (JAK2; Table 7): 4020 nM
IC50 (JAK2; Table 8): 4020 nM
IC50 [1]: 173 nM

COc1nn(C)cc1Nc1ncc(F)c(-c2c[nH]c3c(NC(=O)[C@H]4CCCN4[C@H]4CCN(C)C4)cccc23)n1 [Example 25, (2R,3′S)-N-(3-(5-fluoro-2-((3-methoxy-1-methyl-1H-pyrazol-4-yl)amino)pyrimidin-4-yl)-1H-indol-7-yl)-1′-methyl-[1,3′-bipyrrolidine]-2-carboxamide]
IC50 (JAK1; Table 7): 68 nM
IC50 (JAK2; Table 7): 12400 nM

COc1nn(C)cc1Nc1ncc(F)c(-c2c[nH]c3c(NC(=O)[C@H]4CC(F)(F)CN4[C@@H]4CCN(C)C4)cccc23)n1 [Example 26, (2R,3′R)-4,4-difluoro-N-(3-(5-fluoro-2-((3-methoxy-1-methyl-1H-pyrazol-4-yl)amino)pyrimidin-4-yl)-1H-indol-7-yl)-1′-methyl-[1,3′-bipyrrolidine]-2-carboxamide]
IC50 (JAK1; Table 7): 48 nM
IC50 (JAK2; Table 7): 5490 nM

COc1nn(C)cc1Nc1ncc(F)c(-c2c[nH]c3c(NC(=O)[C@H]4CC(F)(F)CN4[C@H]4CCN(C)C4)cccc23)n1 [Example 27, (2R,3′S)-4,4-difluoro-N-(3-(5-fluoro-2-((3-methoxy-1-methyl-1H-pyrazol-4-yl)amino)pyrimidin-4-yl)-1H-indol-7-yl)-1′-methyl-[1,3′-bipyrrolidine]-2-carboxamide]
IC50 (JAK1; Table 7): 60 nM
IC50 (JAK2; Table 7): 4400 nM

COc1nn(C)cc1Nc1ncc(C)c(-c2c[nH]c3c(NC(=O)[C@H]4CCCN4[C@@H]4CCN(C)C4)cccc23)n1 [Example 28, (2R,3′R)-N-(3-(2-((3-methoxy-1-methyl-1H-pyrazol-4-yl)amino)-5-methylpyrimidin-4-yl)-1H-indol-7-yl)-1′-methyl-[1,3′-bipyrrolidine]-2-carboxamide]
IC50 (JAK1; Table 7): 40 nM
IC50 (JAK2; Table 7): 16300 nM

COc1nn(C)cc1Nc1ncc(C)c(-c2c[nH]c3c(NC(=O)[C@H]4CCCN4[C@H]4CCN(C)C4)cccc23)n1 [Example 29, (2R,3′S)-N-(3-(2-((3-methoxy-1-methyl-1H-pyrazol-4-yl)amino)-5-methylpyrimidin-4-yl)-1H-indol-7-yl)-1′-methyl-[1,3′-bipyrrolidine]-2-carboxamide]
IC50 (JAK1; Table 7): 67 nM
IC50 (JAK2; Table 7): 13400 nM

COc1nn(C)cc1Nc1ncc(C)c(-c2c[nH]c3c(NC(=O)[C@H]4C[C@H](F)CN4[C@@H]4CCN(C)C4)cccc23)n1 [Example 30, (2R,3′R,4S)-4-fluoro-N-(3-(2-((3-methoxy-1-methyl-1H-pyrazol-4-yl)amino)-5-methylpyrimidin-4-yl)-1H-indol-7-yl)-1′-methyl-[1,3′-bipyrrolidine]-2-carboxamide]
IC50 (JAK1; Table 7): 33 nM
IC50 (JAK1; Table 8): 33 nM
JAK2/JAK1 Multiple selectivity (JAK1): 156
IC50 (JAK2; Table 7): 5160 nM
IC50 (JAK2; Table 8): 5160 nM
IC50 [1]: 127 nM

COc1nn(C)cc1Nc1ncc(C)c(-c2c[nH]c3c(NC(=O)[C@H]4C[C@H](F)CN4[C@H]4CCN(C)C4)cccc23)n1 [Example 31, (2R,3′S,4S)-4-fluoro-N-(3-(2-((3-methoxy-1-methyl-1H-pyrazol-4-yl)amino)-5-methylpyrimidin-4-yl)-1H-indol-7-yl)-1′-methyl-[1,3′-bipyrrolidine]-2-carboxamide]
IC50 (JAK1; Table 7): 92 nM
IC50 (JAK2; Table 7): 11900 nM

COc1nn(C)cc1Nc1ncc(C)c(-c2c[nH]c3c(NC(=O)[C@H]4CC(F)(F)CN4[C@H]4CCN(C)C4)cccc23)n1 [Example 33, (2R,3′S)-4,4-difluoro-N-(3-(2-((3-methoxy-1-methyl-1H-pyrazol-4-yl)amino)-5-methylpyrimidin-4-yl)-1H-indol-7-yl)-1′-methyl-[1,3′-bipyrrolidine]-2-carboxamide]
IC50 (JAK1; Table 7): 39 nM
IC50 (JAK2; Table 7): 3430 nM

COc1nn(C)cc1Nc1ncc(C)c(-c2c[nH]c3c(NC(=O)[C@H]4CC(F)(F)CN4[C@@H]4CCOC4)cccc23)n1 [Example 34, (R)-4,4-difluoro-N-(3-(2-((3-methoxy-1-methyl-1H-pyrazol-4-yl)amino)-5-methylpyrimidin-4-yl)-1H-indol-7-yl)-1-((R)-tetrahydrofuran-3-yl)pyrrolidine-2-carboxamide]
IC50 (JAK1; Table 7): 161 nM
IC50 (JAK2; Table 7): 2510 nM

COc1nn(C)cc1Nc1ncc(C)c(-c2c[nH]c3c(NC(=O)[C@H]4CC(F)(F)CN4[C@H]4CCOC4)cccc23)n1 [Example 35, (R)-4,4-difluoro-N-(3-(2-((3-methoxy-1-methyl-1H-pyrazol-4-yl)amino)-5-methylpyrimidin-4-yl)-1H-indol-7-yl)-1-((S)-tetrahydrofuran-3-yl)pyrrolidine-2-carboxamide]
IC50 (JAK1; Table 7): 115 nM
IC50 (JAK2; Table 7): 1890 nM

COc1nn(C)cc1Nc1nccc(-c2c[nH]c3c(NC(=O)[C@H]4CC(F)(F)CN4[C@@H]4CCN(C)C4)cccc23)n1 [Example 36, (2R,3′R)-4,4-difluoro-N-(3-(2-((3-methoxy-1-methyl-1H-pyrazol-4-yl)amino)pyrimidin-4-yl)-1H-indol-7-yl)-1′-methyl-[1,3′-bipyrrolidine]-2-carboxamide]
IC50 (JAK1; Table 7): 91 nM
IC50 (JAK2; Table 7): 12000 nM

COc1nn(C)cc1Nc1nccc(-c2c[nH]c3c(NC(=O)[C@H]4CC(F)(F)CN4[C@H]4CCN(C)C4)cccc23)n1 [Example 37, (2R,3′S)-4,4-difluoro-N-(3-(2-((3-methoxy-1-methyl-1H-pyrazol-4-yl)amino)pyrimidin-4-yl)-1H-indol-7-yl)-1′-methyl-[1,3′-bipyrrolidine]-2-carboxamide]
IC50 (JAK1; Table 7): 216 nM
IC50 (JAK2; Table 7): 10800 nM

COc1nn(C)cc1Nc1ncc(F)c(-c2c[nH]c3c(NC(=O)[C@H]4C[C@H](F)CN4[C@@H]4CCN(C)C4)cccc23)n1 [Example 38, (2R,3′R,4S)-4-fluoro-N-(3-(5-fluoro-2-((3-methoxy-1-methyl-1H-pyrazol-4-yl)amino)pyrimidin-4-yl)-1H-indol-7-yl)-1′-methyl-[1,3′-bipyrrolidine]-2-carboxamide]
IC50 (JAK1; Table 7): 34 nM
IC50 (JAK2; Table 7): 5280 nM

COc1nn(C)cc1Nc1ncc(F)c(-c2c[nH]c3c(NC(=O)[C@H]4C[C@H](F)CN4[C@H]4CCN(C)C4)cccc23)n1 [Example 39, (2R,3′S,4S)-4-fluoro-N-(3-(5-fluoro-2-((3-methoxy-1-methyl-1H-pyrazol-4-yl)amino)pyrimidin-4-yl)-1H-indol-7-yl)-1′-methyl-[1,3′-bipyrrolidine]-2-carboxamide]
IC50 (JAK1; Table 7): 50 nM
IC50 (JAK2; Table 7): 4850 nM

COc1nn(C)cc1Nc1nccc(-c2c[nH]c3c(NC(=O)[C@H]4C[C@H](F)CN4C4CCN(C)CC4)cccc23)n1 [Example 40, (2R,4S)-4-fluoro-N-(3-(2-((3-methoxy-1-methyl-1H-pyrazol-4-yl)amino)pyrimidin-4-yl)-1H-indol-7-yl)-1-(1-methylpiperidin-4-yl)pyrrolidine-2-carboxamide]
IC50 (JAK1; Table 7): 259 nM
IC50 (JAK2; Table 7): 24300 nM

CCCS(=O)(=O)N[C@H]1C[C@@H](N(C)c2ncnc3[nH]ccc23)C1 [abrocitinib, reference compound]
IC50 [1]: 204 nM
